Reference: patent US20170114070A1, “INHIBITORS OF THE WNT SIGNALLING PATHWAYS” (Bayer Pharma Aktiengesellschaft, priority 2014, published 2017)

How the values were obtained:
[1] = test system: constitutive active Wnt pathway (HCT116 TOPFlash); test: Cellular reporter assay, HCT116 Super TopFlash (constitutive active Wnt pathway); type: cell-based; conditions: Homo sapiens, HCT-116; HCT116 stably transfected with Super TopFlash vector; 36 hours incubation; luciferase expression
Protocol: In order to discover and characterize small molecules which inhibit the constitutive active colorectal cancer cell (CRC) Wnt pathway, a cellular reporter assay was employed. The corresponding assay cell was generated by transfection of the colorectal cancer cell line HCT116 (ATCC, #CCL-247) with the Super TopFlash vector (Morin, Science 275, 1997, 1787-1790; Molenaar et al., Cell 86 (3), 1996, 391-399). The HCT116 cell line is cultivated at 37° C. and 5% CO2 in DMEM/F-12 (Life Technologies, #11320-074), supplemented with 2 mM glutamine, 20 mM HEPES, 1.4 mM pyruvate, 0.15% Na-bicarbonate and 10% foetal bovine serum (GIBCO, #10270), this cancer cell line is pathophysiological relevant since it carries a deletion of position S45 in the β-catenin gene, leading to constitutive active Wnt signaling. Stable transfectants were generated by cotransfection with pcDNA3 and selection of stable transfected cells with 1 mg/ml G418.
(§1) In a parallel approach, HCT116 cells were cotransfected with the FOP control vector and pcDNA3. The FOP vector is identical to the TOP construct, but it contains instead of functional TCF elements a randomized, non-functional sequence. For this transfection a stable transfected cell line was generated as well.
(§2) In preparation of the assay, the two cell lines were plated 24 hours before at 10000 cells per well of a 384 micro titre plate (MTP) in 30 μL growth medium. Selective inhibitory activity for small molecules on the mutated Wnt pathway was determined after parallel incubation of both (TOP and FOP) HCT116 reporter cell lines with a compound dilution series from 50 μM to 15 nM in steps of 3.16-fold dilutions in CAFTY buffer (130 mM NaCl, 5 mM KCl, 20 mM HEPES, 1 mM MgCl2, 5 mM NaHCO3, pH 7.4) containing 2 mM Ca^2+ and 0.01% BSA. The compounds were thereby serially prediluted in 100% DMSO and thereafter in addition 50 fold into the CAFTY compound dilution buffer (described above). From this dilution 10 μL were added to the cells in 30 μL growth medium and incubated for 36 hours at 37° C. and 5% CO2. Thereafter luciferase assay buffer (1:1 mixture of luciferase substrate buffer (20 mM Tricine, 2.67 mM MgSO4, 0.1 mM EDTA, 4 mM DTT, 270 μM Coenzyme A, 470 μM Luciferin, 530 μM ATP, ph adjusted to pH 7.8 with a sufficient volume of 5M NaOH) and Triton buffer (30 mL Triton X-100, 115 mL glycerol, 308 mg Dithiothreitol, 4.45 g Na2HPO4.2H2O, 3.03 g TRIS HCl, ad 1 l H20, pH 7.8) was added as equal volume to the compound solution on the cells to determine luciferase expression as a measure of Wnt signaling activity in a luminometer.

[2] = test system: HCT116 FOPFlash (FOP control vector, non-functional TCF elements); test: Cellular control reporter assay, HCT116 FOP control vector; type: cell-based; conditions: Homo sapiens, HCT-116; HCT116 stably transfected with FOP control vector; 36 hours incubation; luciferase expression; dilution series from 50 μM
Protocol: as §1, §2

| IC50 [1] | IC50 [2] | SMILES |
| --- | --- | --- |
| 4100 nM | ≥ 50000 nM | CN1CCN(CC(=O)Nc2cc(C(=O)Nc3cnc(-c4cnc(N)cn4)cn3)ccc2OC(F)(F)F)CC1 [Example 60, N-(5′-amino-2,2′-bipyrazin-5-yl)-3-{[(4-methylpiperazin-1-yl)acetyl]amino}-4-(trifluoromethoxy)benzamide] |
| 483 nM | ≥ 50000 nM | O=C(CN1CCOCC1)Nc1cc(C(=O)Nc2cnc(-c3ccncc3)cn2)ccc1OC(F)(F)F [Example 51, 3-[(morpholin-4-ylacetyl)amino]-N-[5-(pyridin-4-yl)pyrazin-2-yl]-4-(trifluoromethoxy)benzamide] |
| 17 nM | 38000 nM | CN1CCN(CC(=O)Nc2cc(C(=O)Nc3cnc(-c4cccnc4)cn3)ccc2OC(F)(F)F)CC1 [Example 22, 3-{[(4-methylpiperazin-1-yl)acetyl]amino}-N-[5-(pyridin-3-yl)pyrazin-2-yl]-4-(trifluoromethoxy)benzamide] |
| 225 nM | ≥ 50000 nM | CN1CCN(CC(=O)Nc2cc(C(=O)Nc3cnc(-c4ccccc4F)cn3)ccc2OC(F)(F)F)CC1 [Example 41, N-[5-(2-fluorophenyl)pyrazin-2-yl]-3-{[(4-methylpiperazin-1-yl)acetyl]amino}-4-(trifluoromethoxy)benzamide] |
| 67.2 nM | ≥ 50000 nM | Nc1ncc(-c2ccc(NC(=O)c3ccc(OC(F)(F)F)c(NC(=O)CN4CCOCC4)c3)nn2)cn1 [Example 13, N-[6-(2-aminopyrimidin-5-yl)pyridazin-3-yl]-3-[(morpholin-4-ylacetyl)amino]-4-(trifluoromethoxy)benzamide] |
| 153 nM | ≥ 50000 nM | CN1CCN(CC(=O)Nc2cc(C(=O)Nc3cnc(-c4ccccn4)cn3)ccc2OC(F)(F)F)CC1 [Example 40, 3-{[(4-methylpiperazin-1-yl)acetyl]amino}-N-[5-(pyridin-2-yl)pyrazin-2-yl]-4-(trifluoromethoxy)benzamide] |
| 3000 nM | ≥ 50000 nM | CN1CCN(CC(=O)Nc2cc(C(=O)Nc3cnc(-c4cccc(F)c4)cn3)ccc2OC(F)(F)F)CC1 [Example 59, N-[5-(3-fluorophenyl)pyrazin-2-yl]-3-{[(4-methylpiperazin-1-yl)acetyl]amino}-4-(trifluoromethoxy)benzamide] |
| 115 nM | 31500 nM | O=C(CN1CCOCC1)Nc1cc(C(=O)Nc2cnc(-c3ccccc3Cl)cn2)ccc1OC(F)(F)F [Example 33, N-[5-(2-chlorophenyl)pyrazin-2-yl]-3-[(morpholin-4-ylacetyl)amino]-4-(trifluoromethoxy)benzamide] |
| 43.3 nM | ≥ 50000 nM | Nc1ccc(-c2ccc(NC(=O)c3ccc(OC(F)(F)F)c(NC(=O)CN4CCOCC4)c3)nn2)cn1 [Example 16, N-[6-(6-aminopyridin-3-yl)pyridazin-3-yl]-3-[(morpholin-4-ylacetyl)amino]-4-(trifluoromethoxy)benzamide] |
| 63.2 nM | ≥ 50000 nM | O=C(CN1CCOCC1)Nc1cc(C(=O)Nc2cnc(-c3ccccc3)cn2)ccc1OC(F)(F)F [Example 10, 3-[(morpholin-4-ylacetyl)amino]-N-(5-phenylpyrazin-2-yl)-4-(trifluoromethoxy)benzamide] |
| 116 nM | ≥ 5770 nM | O=C(CN1CCOCC1)Nc1cc(C(=O)Nc2cnc(-c3cccc(Cl)c3)cn2)ccc1OC(F)(F)F [Example 35, N-[5-(3-chlorophenyl)pyrazin-2-yl]-3-[(morpholin-4-ylacetyl)amino]-4-(trifluoromethoxy)benzamide] |
| 834 nM | ≥ 50000 nM | O=C(CN1CCOCC1)Nc1cc(NC(=O)c2cnc(-c3ccccc3)cn2)ccc1OC(F)(F)F [Example 6, N-{3-[(morpholin-4-ylacetyl)amino]-4-(trifluoromethoxy)phenyl}-5-phenylpyrazine-2-carboxamide] |
| 418 nM | ≥ 50000 nM | O=C(CN1CCOCC1)Nc1cc(C(=O)Nc2ccc(-c3cccnc3F)nn2)ccc1OC(F)(F)F [Example 17, N-[6-(2-fluoropyridin-3-yl)pyridazin-3-yl]-3-[(morpholin-4-ylacetyl)amino]-4-(trifluoromethoxy)benzamide] |
| 2400 nM | ≥ 50000 nM | O=C(CN1CCOCC1)Nc1cc(C(=O)Nc2cnc(-c3cnccn3)cn2)ccc1OC(F)(F)F [Example 57, N-(2,2′-bipyrazin-5-yl)-3-[(morpholin-4-ylacetyl)amino]-4-(trifluoromethoxy)benzamide] |
| 29.7 nM | 46000 nM | O=C(CN1CCOCC1)Nc1cc(C(=O)Nc2cnc(-c3cccnc3)cn2)ccc1OC(F)(F)F [Example 23, 3-[(morpholin-4-ylacetyl)amino]-N-[5-(pyridin-3-yl)pyrazin-2-yl]-4-(trifluoromethoxy)benzamide] |
| 155 nM | 27600 nM | CN1CCN(CC(=O)Nc2cc(C(=O)Nc3cnc(-c4cc(F)cc(F)c4)cn3)ccc2OC(F)(F)F)CC1 [Example 43, N-[5-(3,5-difluorophenyl)pyrazin-2-yl]-3-{[(4-methylpiperazin-1-yl)acetyl]amino}-4-(trifluoromethoxy)benzamide] |
| 16700 nM | ≥ 50000 nM | Cc1ccncc1-c1cnc(NC(=O)c2ccc(OC(F)(F)F)c(NC(=O)CN3CCOCC3)c2)cn1 [Example 45, N-[5-(4-methylpyridin-3-yl)pyrazin-2-yl]-3-[(morpholin-4-ylacetyl)amino]-4-(trifluoromethoxy)benzamide] |
| – | 3100 nM | O=C(Nc1ccc([N+](=O)[O-])cc1Cl)c1cc(Cl)ccc1O [Ref., niclosamide, reference compound] |
| 16800 nM | ≥ 50000 nM | Nc1ccc(-c2cnc(NC(=O)c3ccc(OC(F)(F)F)c(NC(=O)CN4CCOCC4)c3)cn2)cn1 [Example 46, N-[5-(6-aminopyridin-3-yl)pyrazin-2-yl]-3-[(morpholin-4-ylacetyl)amino]-4-(trifluoromethoxy)benzamide] |
| 125 nM | ≥ 50000 nM | O=C(CN1C[C@@H]2C[C@H]1CO2)Nc1cc(C(=O)Nc2ccc(-c3ccccc3)nn2)ccc1OC(F)(F)F [Example 8, 3-{[(1S,4S)-2-oxa-5-azabicyclo[2.2.1]hept-5-ylacetyl]amino}-N-(6-phenylpyridazin-3-yl)-4-(trifluoromethoxy)benzamide] |
| 830 nM | 9500 nM | Nc1ncc(-c2cnc(NC(=O)c3ccc(OC(F)(F)F)c(NC(=O)CN4CCOCC4)c3)cn2)cn1 [Example 53, N-[5-(2-aminopyrimidin-5-yl)pyrazin-2-yl]-3-[(morpholin-4-ylacetyl)amino]-4-(trifluoromethoxy)benzamide] |
| 325 nM | ≥ 50000 nM | CN1CCN(CC(=O)Nc2cc(C(=O)Nc3ncc(-c4ccccc4)cn3)ccc2OC(F)(F)F)CC1 [Example 19, 3-{[(4-methylpiperazin-1-yl)acetyl]amino}-N-(5-phenylpyrimidin-2-yl)-4-(trifluoromethoxy)benzamide] |
| 88.5 nM | 26800 nM | O=C(CN1CCOCC1)Nc1cc(C(=O)Nc2cnc(-c3cc(F)cc(F)c3)cn2)ccc1OC(F)(F)F [Example 31, N-[5-(3,5-difluorophenyl)pyrazin-2-yl]-3-[(morpholin-4-ylacetyl)amino]-4-(trifluoromethoxy)benzamide] |
| 64 nM | ≥ 50000 nM | CN1CCN(CC(=O)Nc2cc(C(=O)Nc3cnc(-c4ccncc4)cn3)ccc2OC(F)(F)F)CC1 [Example 28, 3-{[(4-methylpiperazin-1-yl)acetyl]amino}-N-[5-(pyridin-4-yl)pyrazin-2-yl]-4-(trifluoromethoxy)benzamide] |
| – | ≥ 50000 nM | CN1CCN(CC(=O)Nc2cc(C(=O)Nc3cnc(-c4ccc(N)nc4)cn3)ccc2OC(F)(F)F)CC1 [Example 24, N-[5-(6-aminopyridin-3-yl)pyrazin-2-yl]-3-{[(4-methylpiperazin-1-yl)acetyl]amino}-4-(trifluoromethoxy)benzamide] |
